Columns and labels:
[1] = test system: Escherichia coli, ATCC 11229; assay: Biocidal effect, dosage response and synergy (reduction in CFU after exposure to biocide); assay type: cell-based; details: 9 minutes at 30° C.; for Reduction obtained in E. coli: pH 6-6.5, factor of reduction in CFU
Description: (§1) The assay is based on the requirements to chemical disinfectants and antiseptic agent with regard to a reduction in fungus and bacteria of 4 and 5 log units respectively. These requirements are stated in DS/EN 1276:1997 and DS/EN 1275:2005, respectively.
(§2) The following microorganisms were chosen for this dosage response assays: Staphylococcus aureus, ATCC 6538, representing grampositive bacteria; Escherichia coli, ATCC 11229, representing gramnegative bacteria; and Candida albicans, ATCC 2091, representing yeast fungi.
(§3) The bacterial cultures were cultivated in the growth medium TSB (Tryptic Soy Bouillon) for 24 h at 37° C. before use. Colony forming units (CFU) were determined by plating Tryptic Soy Agar (TSA).
(§4) The exposure to biocide was performed at pH 6-6.5, which was obtained by addition of 100 mM potassium phosphate buffer. To test tubes with 8 mL sterile 100 mM phosphate buffer were added 1 mL test solution (i.e. biocide solution) and 1 mL stock culture. After thorough mixing the assay mixtures were exposed to heating in water bath at 30° C. for 9 minutes. After exposure the test tubes were immediately removed from the water bath and the surviving microorganisms were determined by plating.
(§5) Reference samples were prepared by adding 1 mL sterile water instead of 1 mL test solution.
(§6) From appropriate dilutions of starting material (mixture of biocide solution, stock culture and buffer) was taken 0.1 mL onto agar plates, and the material was spread with Drigalski spatulas. The plates were incubated at 37° C. 1 day for bacteria and 2 days for yeast.
(§7) For determining CFU of the bacteria after exposure, with and without biocide, was used incubation on TSA for 24 h at 37° C. For determining CFU of Candida albicans before and after exposure was used incubation on MEA for 48 h at 37° C.
(§8) Where a large reduction in organisms was expected (test concentrations of 700 and 200 ppm) 1 mL and 0.1 mL solution, respectively, were mixed with 100 ml sterile water and filtered through a 47 mm Millipore EZ-Pak® membrane filter, mesh 0.22 μm. The filter was rinsed with 100 mL sterile water, and thereafter placed directly on the agar plate. The mixing in water and subsequent rinsing ensures that the biocide is heavily diluted and thus will not have any effect after plating. For dilutions of 100× and more, regular plating were used, as the biocide at these concentrations is considered to not provide any further reduction in the microorganisms during plating on agar.
(§9) Plates with between 20 and 500 CFU were chosen for counting. Number of CFU (colony forming units) per g or mL sample was calculated by multiplying the number of colonies per plate with the dilution and further by 10, as only 0.1 mL was used on each plate.
(§10) After incubation, CFU was determined and reduction in organisms was calculated. All tests were performed in triplicate.
(§11) The optimal biocides, Bardap-26 and Akacid Forte, found in Example 4A, were further assayed for synergistically effect. Bardap-26 and Akacid Forte was mixed in a 50:50 ratio, and the applied concentrations can be seen from Table 5. The methods and solutions were otherwise as described in example 4A herein.

[2] = test system: Staphylococcus aureus, ATCC 6538; assay: as above; assay type: cell-based; details: 9 minutes at 30° C.; for Reduction obtained in Staphylococcus Aureus: pH 6-6.5, factor of reduction in CFU
Description: as §1, §2, §3, §4, §5, §6, §7, §8, §9, §10, §11

[3] = test system: Candida albicans, ATCC 2091; assay: as above; assay type: cell-based; details: 9 minutes at 30° C.; for Reduction obtained in Candida Albicans: pH 6-6.5, factor of reduction in CFU
Description: as §1, §2
Candida albicans was cultivated on malt extract agar (MEA) for 24 h at 37° C. before use. Then the yeast cells were harvested in 0.9% saline by use of a drigalski spatula. CFU were determined by plating on MEA.
as §4, §5, §6, §7, §8, §9, §10, §11

[4] = Critical micelle concentration by Sudan Black B absorbance at 600 nm; assay type: physicochemical; details: data not shown
Description: The critical micelle concentration is measured using Sudan Black B dissolved in the test solutions at different concentrations. Sudan Black B is dissolvable in micelles, only. A difference in the absorbance measured is thus a valid measure of the critical micelle concentration in the test solutions. Absorbance was measured using a Shimadzu UV-1800 spectrofotometer and the absorbance is measured at 600 nm. Dilutions were made in water and Sudan Black B by adding first water, then Sudan Black B and at last the test solutions to 4 ml cuvettes. The dilutions were then stirred and left for at least 6 hours at room temperature. Then the absorbance was measured.

[5] = 120 ppm active (total for mixtures)
[6] = test concentrations 40-700 ppm active

In the case of “N,N-didecyl-N-methyl-poly(oxyethyl) ammonium propionate [Bardap-26]”, the “Reduction obtained in E. coli” value ([1]; 40 ppm active) is reported as ~10^4, the “Reduction obtained in E. coli” value ([1]; 80 ppm active) is reported as ~10^4 and the “Reduction obtained in E. coli” value [1, 5] is reported as 10^4-10^5. The “Reduction obtained in E. coli” value ([1]; 160 ppm active) was >10^7, the “Reduction obtained in E. coli” value ([1]; 200 ppm active) was >10^7 and the “Reduction obtained in E. coli” value ([1]; 700 ppm active) was >10^7. The “Effect on E. coli as summarised in words” value [1, 6] was “good effect”, the “Reduction obtained in Staphylococcus Aureus” value ([2]; 40 ppm active) was ~10^2 and the “Reduction obtained in Staphylococcus Aureus” value ([2]; 80 ppm active) was 10^2-10^3. For the same substance, the “Reduction obtained in Staphylococcus Aureus” value [2, 5] was 10^2-10^3, the “Reduction obtained in Staphylococcus Aureus” value ([2]; 160 ppm active) was >10^7 and the “Reduction obtained in Staphylococcus Aureus” value ([2]; 200 ppm active) was >10^7. The “Reduction obtained in Staphylococcus Aureus” value ([2]; 700 ppm active) was >10^7, the “Effect on Staphylococcus Aureus as summarised in words” value [2, 6] was “good effect” and the “Reduction obtained in Candida Albicans” value ([3]; 40 ppm active) was “No reduction”. For the same substance, the “Reduction obtained in Candida Albicans” value ([3]; 80 ppm active) was 10^2-10^3, the “Reduction obtained in Candida Albicans” value [3, 5] was ~10^3 and the “Reduction obtained in Candida Albicans” value ([3]; 160 ppm active) was ~10^4. The “Reduction obtained in Candida Albicans” value ([3]; 200 ppm active) was ~10^4, the “Reduction obtained in Candida Albicans” value ([3]; 700 ppm active) was 10^4-10^5 and the “Reduction of Candida Albicans” value ([3]; concentration not given) was 10^4. For the same substance, the “Effect on Candida Albicans as summarised in words” value [3, 6] was “good effect” and the CMC [4] was 0.7 to 1.0 mmol/L.
